By IC50 is commonly meant the concentration that inhibits the measured activity by half.

14 molecules from patent US10160747B2, “Compounds and methods for kinase modulation, and indications therefor” (Plexxikon Inc., priority 2016, dated 2018) can be followed below.

In experiment [1] the test system is MOLM-14 D835Y (endogenous FLT3 ITD and transfected FLT3 D835Y). The experiment can be described thus: MOLM-14 D835Y cell proliferation assay (CellTiter-Glo). In kind it is cell-based. The following applies: Homo sapiens, MOLM-14, 72 h; 3 d growth, GMean. The method, boiled down:
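Three-day proliferation at 37 °C/5% CO2 of FLT3-ITD MOLM-14 lines with D835Y or F691L mutation, seeded 1×10^4 per well. Compounds at eight points, top 1 μM final, 0.2% DMSO. ATP luminescence (CellTiter-Glo) gives IC50.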
Background: Cellular ATP, detected with luciferase, serves as a proxy for viable cell number.

Experiment [2] has as its target T1, FLT3-ITD (Homo sapiens, UniProt P36888).
T1 sequence (P36888 1-993): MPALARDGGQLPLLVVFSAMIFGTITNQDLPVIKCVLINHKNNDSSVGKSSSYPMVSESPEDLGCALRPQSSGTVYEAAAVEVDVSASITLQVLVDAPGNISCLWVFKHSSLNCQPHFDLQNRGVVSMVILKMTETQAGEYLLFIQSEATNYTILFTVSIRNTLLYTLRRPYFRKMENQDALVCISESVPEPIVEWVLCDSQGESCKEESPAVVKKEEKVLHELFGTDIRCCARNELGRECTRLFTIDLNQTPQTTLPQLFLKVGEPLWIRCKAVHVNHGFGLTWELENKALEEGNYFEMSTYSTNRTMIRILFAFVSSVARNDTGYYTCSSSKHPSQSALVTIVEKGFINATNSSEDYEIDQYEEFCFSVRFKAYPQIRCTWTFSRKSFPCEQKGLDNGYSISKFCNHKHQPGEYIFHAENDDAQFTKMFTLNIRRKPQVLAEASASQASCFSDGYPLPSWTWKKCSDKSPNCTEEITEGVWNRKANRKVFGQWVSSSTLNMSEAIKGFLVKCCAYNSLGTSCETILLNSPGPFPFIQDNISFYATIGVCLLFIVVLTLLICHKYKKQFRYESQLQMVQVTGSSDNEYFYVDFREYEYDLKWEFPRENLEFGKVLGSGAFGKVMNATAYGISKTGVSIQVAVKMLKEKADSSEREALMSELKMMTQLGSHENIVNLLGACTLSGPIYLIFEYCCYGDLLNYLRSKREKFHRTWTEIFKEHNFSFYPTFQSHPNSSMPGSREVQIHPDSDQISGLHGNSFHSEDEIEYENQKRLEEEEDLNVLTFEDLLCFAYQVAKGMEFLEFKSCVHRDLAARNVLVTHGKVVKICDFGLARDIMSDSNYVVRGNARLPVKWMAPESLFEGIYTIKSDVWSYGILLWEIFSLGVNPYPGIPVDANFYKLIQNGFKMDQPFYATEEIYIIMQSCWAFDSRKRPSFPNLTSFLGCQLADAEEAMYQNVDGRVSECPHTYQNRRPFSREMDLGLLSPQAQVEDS
The experiment can be described thus: FLT3-ITD recombinant enzyme kinase assay (AlphaScreen). The following applies: 8 pt; read-out: FLT3_ITD 8 pt: IC50. In kind it is biochemical. The method, boiled down:
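IC50 values come from AlphaScreen proximity signal: phosphorylated biotin-poly(Glu4-Tyr) (30 nM) bridges streptavidin donor and anti-phosphotyrosine PY20 acceptor beads. Enzyme reactions ran at 100 μM ATP for c-KIT versus 10 μM for both FLT3 mutants (ITD, D835Y); beads added in stop buffer, room temperature.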
(In general: Bead proximity is the source of the signal in Alpha formats.)

For the molecule `O=C(Cc1ccc(-c2cnc3[nH]cc(F)c3c2)cc1F)Nc1cncc(C(F)(F)F)c1` [Compound P-0053, 2-[2-fluoro-4-(3-fluoro-1H-pyrrolo[2,3-b]pyridin-5-yl)phenyl]-N-[5-(trifluoromethyl)-3-pyridyl]acetamide], the IC50 in experiment [1] and in experiment [2] was 0.0001 to 10 µM throughout.
For `Cc1ncc(NC(=O)Cc2ccc(-c3cnc4[nH]nc(C5CC5)c4c3)cc2F)cc1C(F)(F)F` [Compound P-0066, 2-(4-(3-cyclopropyl-1H-pyrazolo[3,4-b]pyridin-5-yl)-2-fluorophenyl)-N-(6-methyl-5-(trifluoromethyl)pyridin-3-yl)acetamide], the IC50 in experiment [1] and in experiment [2] was 0.0001 to 10 µM in each case.
`COc1ncc(NC(=O)Cc2ccc(-c3cnc4[nH]cc(C(C)=O)c4c3)cc2F)cc1C(F)(F)F` [Compound P-0035, 2-[4-(3-acetyl-1H-pyrrolo[2,3-b]pyridin-5-yl)-2-fluoro-phenyl]-N-[6-methoxy-5-(trifluoromethyl)-3-pyridyl]acetamide]: the IC50 in experiment [1] and in experiment [2] was 0.0001 to 10 µM throughout.
As to `CCC(=O)c1c[nH]c2ncc(-c3ccc(CC(=O)Nc4cnc(C)c(C(F)(F)F)c4)c(F)c3)cc12` [Compound P-0070, 2-[2-fluoro-4-(3-propanoyl-1H-pyrrolo[2,3-b]pyridin-5-yl)phenyl]-N-[6-methyl-5-(trifluoromethyl)-3-pyridyl]acetamide], the IC50 in experiment [1] and in experiment [2] was 0.0001 to 10 µM in each case.
Take `COc1ncc(NC(=O)Cc2ccc(-c3cnc4[nH]cc(F)c4c3)cc2F)cc1C(F)(F)F` [Compound P-0034, 2-[2-fluoro-4-(3-fluoro-1H-pyrrolo[2,3-b]pyridin-5-yl)phenyl]-N-[6-methoxy-5-(trifluoromethyl)-3-pyridyl]acetamide]: the IC50 in experiment [1] and in experiment [2] was 0.0001 to 10 µM each time.
For `Cc1ncc(NC(=O)Cc2ccc(-c3cnc(Nc4cn[nH]c4)nc3)cc2F)cc1C(F)(F)F` [Compound P-0027, 2-[2-fluoro-4-[2-(1H-pyrazol-4-ylamino)pyrimidin-5-yl]phenyl]-N-[6-methyl-5-(trifluoromethyl)-3-pyridyl]acetamide], the IC50 in experiment [1] and in experiment [2] was 0.0001 to 10 µM throughout.
With `Cn1cnc(Nc2ncc(-c3ccc(CC(=O)Nc4cncc(C(F)(F)F)c4)c(F)c3)cn2)c1` [Compound P-0052, 2-[2-fluoro-4-[2-[(1-methylimidazol-4-yl)amino]pyrimidin-5-yl]phenyl]-N-[5-(trifluoromethyl)-3-pyridyl]acetamide], the IC50 in experiment [1] and in experiment [2] was 0.0001 to 10 µM in each case.
On to `COc1ncc(NC(=O)Cc2ccc(-c3cnc(Nc4cn[nH]c4)nc3)cc2F)cc1C(F)(F)F` [Compound P-0026, 2-[2-fluoro-4-[2-(1H-pyrazol-4-ylamino)pyrimidin-5-yl]phenyl]-N-[6-methoxy-5-(trifluoromethyl)-3-pyridyl]acetamide], for which the IC50 in experiment [1] and in experiment [2] was 0.0001 to 10 µM in each case.
On to `O=C(Cc1ccc(-c2cnc3[nH]cc(Cl)c3n2)cc1F)Nc1cncc(C(F)(F)F)c1` [Compound P-0061, 2-[4-(7-chloro-5H-pyrrolo[2,3-b]pyrazin-2-yl)-2-fluoro-phenyl]-N-[5-(trifluoromethyl)-3-pyridyl]acetamide], for which the IC50 in experiment [1] and in experiment [2] was 0.0001 to 10 µM each time.
Regarding `COc1ncc(NC(=O)Cc2ccc(-c3cnc(Nc4cnn5ccccc45)nc3)cc2F)cc1C(F)(F)F` [Compound P-0037, 2-[2-fluoro-4-[2-(pyrazolo[1,5-a]pyridin-3-ylamino)pyrimidin-5-yl]phenyl]-N-[6-methoxy-5-(trifluoromethyl)-3-pyridyl]acetamide], the IC50 in experiment [1] and in experiment [2] was 0.0001 to 10 µM each time.
`Cn1cc(Nc2ncc(-c3ccc(CC(=O)Nc4cc(C(F)(F)F)ccn4)c(F)c3)cn2)cn1` [Compound P-0082, 2-[2-fluoro-4-[2-[(1-methylpyrazol-4-yl)amino]pyrimidin-5-yl]phenyl]-N-[4-(trifluoromethyl)-2-pyridyl]acetamide]: the IC50 in experiment [1] and in experiment [2] was 0.0001 to 10 µM throughout.
With `Cn1cc(Nc2ncc(-c3ccc(CC(=O)Nc4cncc(C5CC5)c4)c(F)c3)cn2)cn1` [Compound P-0081, N-(5-cyclopropyl-3-pyridyl)-2-[2-fluoro-4-[2-[(1-methylpyrazol-4-yl)amino]pyrimidin-5-yl]phenyl]acetamide], the IC50 in experiment [1] and in experiment [2] was 0.0001 to 10 µM in each case.
As for `Cn1cc(Nc2ncc(-c3ccc(CC(=O)Nc4cncc(C(F)(F)F)c4)c(F)c3)cn2)cn1` [Compound P-0084, 2-[2-fluoro-4-[2-[(1-methylpyrazol-4-yl)amino]pyrimidin-5-yl]phenyl]-N-[5-(trifluoromethyl)-3-pyridyl]acetamide], the half-maximal inhibitory concentration (IC50) in experiment [1] and in experiment [2] was 0.0001 to 10 µM in each case.
With `O=C(Cc1ccc(-c2cnc(Nc3cnn4ccccc34)nc2)cc1F)Nc1ccnc(C(F)(F)F)c1` [Compound P-0033, 2-[2-fluoro-4-[2-(pyrazolo[1,5-a]pyridin-3-ylamino)pyrimidin-5-yl]phenyl]-N-[2-(trifluoromethyl)-4-pyridyl]acetamide], the IC50 in experiment [1] and in experiment [2] was 0.0001 to 10 µM throughout.
